According to article PMC10539439 (Pharmacological Reports, 2023):
Values joined by “and” are separate entries in the source; they are usually repeats but may differ in a detail not shown here. Equal entries are not always repeated.

How the values were obtained:
TAAR1 = molecular target: T1, TAAR1 (Homo sapiens, UniProt Q96RJ0); experiment: Intrinsic activity, Hit Hunter cAMP assay; assay type: cell-based
T1 sequence (Q96RJ0 1-339): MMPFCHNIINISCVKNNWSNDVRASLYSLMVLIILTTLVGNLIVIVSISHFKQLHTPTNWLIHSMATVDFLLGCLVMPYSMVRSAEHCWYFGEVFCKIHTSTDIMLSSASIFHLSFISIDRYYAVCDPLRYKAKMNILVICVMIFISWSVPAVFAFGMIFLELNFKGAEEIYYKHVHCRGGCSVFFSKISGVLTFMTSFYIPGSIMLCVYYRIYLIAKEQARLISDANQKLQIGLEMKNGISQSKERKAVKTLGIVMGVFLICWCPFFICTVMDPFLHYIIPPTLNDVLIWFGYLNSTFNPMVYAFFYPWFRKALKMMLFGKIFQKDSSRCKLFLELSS
Experimental: The intrinsic activity study at cells with overexpression of TAAR1 (Eurofins, cat. No. 95-0173C2) was carried out at Eurofins Discoveries (Fremont, USA) using the Hit Hunter cAMP method. This assay monitors the activation of a GPCR via Gi and Gs secondary messenger signaling in a homogenous, non-imaging assay format using a technology developed by DiscoverX called Enzyme Fragment Complementation (EFC) with β-galactosidase (β-Gal) as the functional reporter. The enzyme is split into two complementary portions: EA for Enzyme Acceptor and ED for Enzyme Donor. ED is fused to cAMP and in the assay competes with cAMP generated by cells for binding to a cAMP-specific antibody. Active β-Gal is formed by complementation of exogenous EA to any unbound EDcAMP.
cAMP Hunter cell lines were expanded from freezer stocks according to standard procedures. Cells were seeded in a total volume of 20 µL into white-walled, 384-well microplates and incubated at 37 ℃ for the appropriate time prior to testing. For agonist determination, cells were incubated with a sample to induce a response. Media was aspirated from cells and replaced with 15 µL 2:1 HBSS/10 mM Hepes:cAMP XS + Ab reagent. Intermediate dilution of sample stocks was performed to generate 4X samples in assay buffer. 5 µL of 4 × sample was added to cells and incubated at 37 ℃ or room temperature for 30 or 60 min. Vehicle concentration was 1%. […] Microplates were read following signal generation with a PerkinElmer Envision instrument for chemiluminescent signal detection.

α2B-adrenoceptor = molecular target: T2, α2B-adrenoceptor (Homo sapiens, UniProt P18089); experiment: Intrinsic activity, AequoScreen aequorin calcium mobilization; assay type: cell-based
T2 sequence (P18089 1-450): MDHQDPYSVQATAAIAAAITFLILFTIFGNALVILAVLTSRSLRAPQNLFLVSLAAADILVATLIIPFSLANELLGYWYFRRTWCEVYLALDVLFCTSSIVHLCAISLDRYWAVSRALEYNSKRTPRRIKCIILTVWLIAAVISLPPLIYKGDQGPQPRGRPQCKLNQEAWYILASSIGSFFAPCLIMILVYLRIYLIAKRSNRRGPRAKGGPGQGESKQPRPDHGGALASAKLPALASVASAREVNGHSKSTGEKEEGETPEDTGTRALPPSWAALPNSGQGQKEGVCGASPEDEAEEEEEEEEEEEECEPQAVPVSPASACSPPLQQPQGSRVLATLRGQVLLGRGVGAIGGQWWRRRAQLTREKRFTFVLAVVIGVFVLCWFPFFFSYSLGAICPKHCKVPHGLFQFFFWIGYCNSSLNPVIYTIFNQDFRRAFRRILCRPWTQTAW
Experimental: The intrinsic activity at α2B-adrenoceptor was evaluated by luminescence detection of calcium mobilization using the recombinant expressed jellyfish photoprotein, aequorin.
Measurements were performed with the α2B-adrenergic AequoScreen cell line (PekinElmer cat. no. ES-031-AF). Cell density, in 96-well format measurements, was 5000 cells per well. […] Compound concentration series (50 μL/well) were diluted in 0.1% BSA (Intergen, cat. no. 3440–75) containing assay buffer (D-MEM/F-12, Invitrogen cat. no. 11039) and prepared in white ½ Area Plate—96-well microplates (PerkinElmer, cat. no. 6005560). The cell suspension was dispersed on the ligands using POLARstar optima reader injectors (BMG Labtech, Germany).
The concentration and dilution series having four replicates were prepared as instructed in the AequoScreen Starter Kit Manual. Cells were injected into wells with standard agonist or tested compounds using the POLARstar optima reader (BMG Labtech, Germany), and emitted light was recorded for 20 s. For the antagonist assay, cells were injected (50 μL) into the assay plate with antagonists (50 μL).

Compound: Cl.N=C(N)NN=Cc1c(Cl)cc(O)cc1Cl [4-OH-Guanabenz, 2-[(2,6-Dichloro-4-hydroxyphenyl)methylene]hydrazinecarboximidamide Hydrochloride]
- Intrinsic activity at TAAR1 (in words) (TAAR1): weak agonistic activity
- EC50 (TAAR1; agonist, tested up to 10^–4 M, response at 10^–2 and 10^–1 M assumed 90–100% of tyramine, read-out: EC50 calculated after computer simulation): 331 µM
- Average Value (raw signal) (TAAR1; cAMP, Agonist, Conc(M) 1e-6): 980.00
- Value 1 / Value 2 (raw signal) (TAAR1; cAMP, Agonist, Conc(M) 1e-6): 960 and 1000
- Average Value (raw signal) (TAAR1; cAMP, Agonist, Conc(M) 1e-5): 1140.00
- Value 1 / Value 2 (raw signal) (TAAR1; cAMP, Agonist, Conc(M) 1e-5): 1080 and 1200
- Average Value (raw signal) (TAAR1; cAMP, Agonist, Conc(M) 0.0001): 2200.00
- Value 1 / Value 2 (raw signal) (TAAR1; cAMP, Agonist, Conc(M) 0.0001): 2200
- % Efficacy (of the full agonist tyramine) (TAAR1; cAMP, Agonist, Conc(M) 0.0001 (10^–4 M)): 23.1%
- Emax at 100 µM (TAAR1; cAMP, Agonist, Conc(M) 0.0001 (10^–4 M), read-out: % Efficacy (of the full agonist tyramine)): 23%
- Intrinsic activity at TAAR1 (TAAR1; summary table): +
- EC50 (α2B-adrenoceptor): 0.33 µM
- Intrinsic activity at α2B-adrenoceptor (in words) (α2B-adrenoceptor): antagonist activity
